Target: T1, Catenin beta-1 (Homo sapiens, UniProt P35222)
T1 sequence (P35222 whole entry): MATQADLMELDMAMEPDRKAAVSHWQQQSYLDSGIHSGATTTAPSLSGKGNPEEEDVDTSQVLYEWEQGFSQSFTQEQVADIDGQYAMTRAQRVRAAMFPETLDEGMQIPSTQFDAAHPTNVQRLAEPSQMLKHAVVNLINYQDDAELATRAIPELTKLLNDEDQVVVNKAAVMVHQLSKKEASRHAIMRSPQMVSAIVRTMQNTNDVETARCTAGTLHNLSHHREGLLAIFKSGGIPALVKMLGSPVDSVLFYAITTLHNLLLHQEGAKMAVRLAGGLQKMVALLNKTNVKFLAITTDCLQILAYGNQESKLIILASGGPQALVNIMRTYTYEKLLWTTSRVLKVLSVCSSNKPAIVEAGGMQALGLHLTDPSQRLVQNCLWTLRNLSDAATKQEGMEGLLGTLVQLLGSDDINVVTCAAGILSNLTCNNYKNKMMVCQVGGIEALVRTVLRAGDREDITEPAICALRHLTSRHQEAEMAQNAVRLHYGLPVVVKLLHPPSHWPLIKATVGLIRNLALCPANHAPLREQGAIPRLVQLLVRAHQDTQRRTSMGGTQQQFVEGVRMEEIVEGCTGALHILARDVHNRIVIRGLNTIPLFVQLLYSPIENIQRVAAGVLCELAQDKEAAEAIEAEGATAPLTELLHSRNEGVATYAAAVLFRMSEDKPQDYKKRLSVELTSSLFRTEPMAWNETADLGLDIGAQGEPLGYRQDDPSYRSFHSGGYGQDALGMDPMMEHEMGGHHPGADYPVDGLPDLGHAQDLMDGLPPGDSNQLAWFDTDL
Experiment: Inhibition of GST-tagged Tcf4 binding to human beta-catenin after 2 hrs by ELISA

Q: How did the IC50 turn out when CCCC(=O)c1cc2c(c(O)c1C)C(=O)C(=O)c1c(O)cccc1-2 was run?
A: < 10 µM

Q: With COC(=O)c1c(C)cc2c(c1O)[C@]1(O)C(=O)c3cc4c(c(O)c3C(=O)[C@]1(OC)[C@H](O)C2)C(=O)C=C(N[C@@H]1O[C@H](C)[C@@H](OC)[C@H](O)[C@@H]1OC)C4=O as the compound, how does the IC50 read?
A: < 10 µM

Q: For COc1c(CC(C)OC(=O)c2c(C)cc(O)cc2O)c2c3c(CC(C)OC(=O)c4c(C)cc(O)cc4O)c(OC)c(=O)c4c(O)cc(OC)c(c5c(OC)cc(O)c(c1=O)c52)c43 (centres undefined), which IC50 is on record?
A: < 10 µM

Q: COc1c(C[C@@H](C)OC(=O)Oc2ccc(O)cc2)c2c3c(C[C@@H](C)OC(=O)c4ccccc4)c(OC)c(=O)c4c(O)cc(OC)c(c5c(OC)cc(O)c(c1=O)c52)c43 [CALPHOSTIN C] was tested. Which IC50 did it give?
A: < 10 µM
